Results from patent publication US11180510B2, “Xanthine derivatives and uses thereof as inhibitors of bromodomains of BET proteins” (Centre national de la recherche scientifique, priority 2017, dated 2021).
Like-named read-outs stand apart in the source and are kept apart here.

How the values were obtained:
Brdt(BD1) = target: T1, Brdt(BD1) (Homo sapiens, UniProt Q58F21); test: HTRF BET selectivity profile, Brdt(BD1); assay type: binding
T1 construct: GST tagged bromodomain proteins were purchased from BPS Bioscience; purchased BPS Bioscience
Method: (§1) HTRF assays were performed in white 384 Well Small Volume™ HiBase Polystyrene Microplates (Greiner) with a total working volume of 20 μL. Compounds were dispensed, with 100 nL per well (0.5% final DMSO), from a concentration stock of 10 mM in 100% DMSO and with serial DMSO dilutions, using an Echo® 550 robot from the Access Labcyte platform (Labcyte) and based on the transfer of liquid by acoustic wave. Then, 19.5 μL of buffer is added, using a Multidrop Combi (Thermo Fisher Scientific). Finally, for each assay, 200 nL of master mix (protein+donor+acceptor) and 200 nL of peptide Is added in the assay wells according to the final concentration and buffer described in Table 3, using the Echo® 550 robot (Labcyte). The IC50 measurements were performed in triplicates (Table 2 and 3). All HTRF reagents (donor and acceptor) were purchased from CisBio Bioassays and reconstituted according to the supplier protocols. The peptide was purchased from Genic Bio Synthetic. The BRD4(1) protein was produced and purified in the laboratory. HTRF signals were measured, after a final incubation (3 h or 6 h or overnight at room temperature or 4° C., according to the bromodomain), using a PHERAstar FS (BMG Labtech) with an excitation filter at 337 nm and fluorescence wavelength measurement at 620 and 665 nm, an integration delay of 60 μs and an integration time of 500 μs. Results were analyzed with a two-wavelengths signal ratio: [intensity (665 nm)/intensity (620 nm)]*104.
(§2) Percentage of inhibition was calculated using the following equation: % inhibition=[(compound signal)−(min signal)]/[(max signal)−(min signal)]*100, where ‘max signal’ is the signal ratio with the compound vehicle alone (DMSO) and ‘min signal’ the signal ratio without peptide.
(§3) Selectivity profiles of bromodomain inhibitors were performed as described in HTRF screen section. […] HTRF detection reagents (EPIgeneous™ Binding Domain kits) were purchased from Cisbio Bioassays and used according to supplier's protocol. GST tagged bromodomain proteins were purchased from BPS Bioscience and histone peptide from Genic Bio Synthetic.

Brd3(BD2) = target: T2, Brd3(BD2) (Homo sapiens, UniProt Q15059); test: HTRF BET selectivity profile, Brd3(BD2); assay type: binding
T2 construct: GST tagged bromodomain proteins were purchased from BPS Bioscience; purchased BPS Bioscience
T2 sequence (Q15059 306-415 limits assumed): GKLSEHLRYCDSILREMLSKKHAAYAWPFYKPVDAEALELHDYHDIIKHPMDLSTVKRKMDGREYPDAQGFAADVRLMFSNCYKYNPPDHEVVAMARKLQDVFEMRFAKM
Method: as §1, §2, §3

Brd4(BD2) = target: T3, Brd4(BD2) (Homo sapiens, UniProt O60885); test: HTRF BET selectivity profile, Brd4(BD2); assay type: binding
T3 construct: GST tagged bromodomain proteins were purchased from BPS Bioscience; purchased BPS Bioscience
Method: as §1, §2, §3

Brd2(BD1) = target: T4, Brd2(BD1) (Homo sapiens, UniProt P25440); test: HTRF BET selectivity profile, Brd2(BD1); assay type: binding; settings: for IC50: read-out: Brd2(BD1) IC50; for Ratio 2-1 vs 2-2: selectivity Brd2(BD1) vs Brd2(BD2), HTRF IC50
T4 construct: GST tagged bromodomain proteins were purchased from BPS Bioscience; purchased BPS Bioscience
T4 sequence (P25440 74-180 limits assumed): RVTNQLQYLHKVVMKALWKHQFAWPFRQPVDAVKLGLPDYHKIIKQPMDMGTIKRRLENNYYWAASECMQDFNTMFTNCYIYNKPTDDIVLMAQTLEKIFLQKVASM
Method: (§4) HTRF assays were performed in white 384 Well Small Volume™ HiBase Polystyrene Microplates (Greiner) with a total working volume of 20 μL. Compounds were dispensed, with 100 nL per well (0.5% final DMSO), from a concentration stock of 10 mM in 100% DMSO and with serial DMSO dilutions, using an Echo® 550 robot from the Access Labcyte platform (Labcyte) and based on the transfer of liquid by acoustic wave. Then, 19.5 μL of buffer is added, using a Multidrop Combi (Thermo Fisher Scientific). […] All HTRF reagents (donor and acceptor) were purchased from CisBio Bioassays and reconstituted according to the supplier protocols. The peptide was purchased from Genic Bio Synthetic. The BRD4(1) protein was produced and purified in the laboratory.
as §2, §3

BRD4(BD1) [1] = target: T5, BRD4(BD1) (Homo sapiens, UniProt O60885); test: Isothermal Titration Calorimetry; assay type: binding; settings: ITC; read-out: Binding affinity (Kd) to BRD4(1) by Isothermal Titration Calorimetry
Method: FIG. 1. Isothermal Titration Calorimetry (ITC) of 43c. Thermogram (top) and non-linear least squares fit model of the integrated data (bottom) at 15° C. of Brd4 (BD1) […] as a function of the molar ratio of ligand to the protein.
ITC was used to evaluate the thermodynamics parameters of the binding between BRD4 (BD1) and the selected compounds. Titrations were carried out on a MicroCal ITC200 microcalorimeter (GE Healthcare, Piscataway, N.J.). Each experiment was designed using a titrant concentration (protein in the syringe generally between 100 and 400 μM) set 10 to 15 times the analyte concentration (compound in the cell generally between 10 and 40 μM) and using 13 injections at 25° C. A first small injection (generally 0.2 μL) was included in the titration protocol in order to remove air bubbles trapped in the syringe prior titration. Raw data were scaled after setting the zero to the titration saturation heat value. Integrated raw ITC data were fitted to a one site non-linear least squares fit model using the MicroCal Origin plugin as implemented in Origin 7 (Origin Lab). Finally, ΔG and TΔS values were calculated from the fitted ΔH and KA values using the equations ΔG=−R.T.inKA and ΔG=ΔH−TΔS.

BRD4(BD1) [2] = target: T5, BRD4(BD1); test: HTRF assay, BRD4(BD1)/histone peptide interaction; assay type: binding; set-up: made in house; settings: for IC50: HTRF; for Ratio 4-1 vs 4-2: selectivity Brd4(BD1) vs Brd4(BD2), HTRF IC50
Method: as §4, §2, §3

Brd3(BD1) = Brd3(BD1) (Homo sapiens, UniProt Q15059); test: HTRF BET selectivity profile, Brd3(BD1); assay type: binding; set-up: GST tagged bromodomain proteins were purchased from BPS Bioscience; purchased BPS Bioscience; settings: for Ratio 3-1 vs 3-2: selectivity Brd3(BD1) vs Brd3(BD2), HTRF IC50
Brd3(BD1), sequence (Q15059 34-140 limits assumed): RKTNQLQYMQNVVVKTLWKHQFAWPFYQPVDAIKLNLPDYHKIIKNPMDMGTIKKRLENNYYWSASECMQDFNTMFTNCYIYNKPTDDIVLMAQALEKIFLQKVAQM
Method: as §4, §2, §3

Brd2(BD2) = target: T6, Brd2(BD2) (Homo sapiens, UniProt P25440); test: HTRF BET selectivity profile, Brd2(BD2); assay type: binding; settings: read-out: Brd2(BD2) IC50
T6 construct: GST tagged bromodomain proteins were purchased from BPS Bioscience; purchased BPS Bioscience
T6 sequence (P25440 344-453 limits assumed): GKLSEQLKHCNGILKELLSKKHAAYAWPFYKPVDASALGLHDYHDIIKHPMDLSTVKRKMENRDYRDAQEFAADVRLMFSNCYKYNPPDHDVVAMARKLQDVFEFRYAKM
Method: as §4, §2, §3

Molm14 cells = test: Cell Titer-Glo cell viability assay, Molm14; assay type: cell-based; settings: Homo sapiens, MOLM-14, 72 h, mean of three experiments, NA = IC50 > maximal concentration used
Method: (§5) The human leukemia cell line Jurkat (ATCC® TIB-152) and Molm14 was maintained in RPMI-1640 medium or MEMα, respectively and supplemented both with 10% FBS at 37° C. and 5% CO2.
(§6) In antiproliferative assays, compounds were assayed for their growth inhibiting activity towards the described cancer cell lines using the Cell Titer-Glo Luminescent Cell Viability Assay as described by the manufacturer (Promega Corporation). Briefly, 10.000 cells were plated onto 96 well-plates (white with clear bottom (3610, Corning Costar)) in 90 μL media per well immediately before assay. 10 μL of compounds were added at different concentrations (ranging from 50 μM to 6 nM) to each well and cell cultures were incubated 37° C. during 72 h. Vehicle (DMSO) was used as negative control, JQ1 (a pan-BET inhibitor) was used as positive control and all compounds were tested in constant percentage of DMSO (1%). After addition of 50 μL Cell Titer-GLO, shaking 2 minutes and incubating at room temperature 10 minutes, the Luminescence was measured using a Centro luminometer LB960 (Berthold). Dose-response curves were generated and effective dose 50 values (EC50) were calculated using non-linear regression analysis (Graph Pad Prism).

Jurkat cells = test: Cell Titer-Glo cell viability assay, Jurkat; assay type: cell-based; settings: Homo sapiens, 72 h, mean of three experiments, NA = IC50 > maximal concentration used
Method: as §5, §6

[3] = mean of three experiments, NA = IC50 > 50 μM, read-out: Brd4(8D1) IC50
[4] = triplicates, NA = IC50 > maximal concentration of compound used

SMILES | IC50 (Brdt(BD1)) [µM] | IC50 (Brd3(BD2)) [µM] | IC50 (Brd4(BD2)) [µM] | IC50 (Brd2(BD1)) [µM] | Ratio 2-1 vs 2-2 (Brd2(BD1)) | Kd (BRD4(BD1) [1]) [µM] | IC50 (BRD4(BD1) [2]; [3]) [µM] | IC50 (BRD4(BD1) [2]; [4]) [µM] | Ratio 4-1 vs 4-2 (BRD4(BD1) [2]) | IC50 (Brd3(BD1)) [µM] | Ratio 3-1 vs 3-2 (Brd3(BD1)) | IC50 (Brd2(BD2)) [µM] | IC50 (Molm14 cells) [µM] | IC50 (Jurkat cells) [µM]
O=C1CCCc2cc(S(=O)(=O)C3CCC(C(=O)NCCc4ccccn4)CC3)ccc2N1 (centres unmarked) [Compound 7a] | 9.16 | 47.2 | 20.8 | 16.1 | 0.4 | 3.5 | 9.55 | 9.6 | 2 | 22.2 | 2 | 7.11 | – | –
CCn1cnc2c1c(=O)[nH]c(=O)n2Cc1ccc(CNS(=O)(=O)c2ccc(C(=O)N3CCOCC3)cc2)cc1 [Compound 44b] | 0.397 | 3.32 | 4.24 | 0.352 | 6 | 0.17 | 0.123 | 0.123 | 34 | 0.23 | 14 | 1.96 | 23.7 | –
CCn1cnc2c1c(=O)[nH]c(=O)n2Cc1ccc(CNS(=O)(=O)c2ccc(Oc3ccc(C(F)(F)F)cc3)cc2)cc1 [Compound 44c] | – | – | – | – | – | – | – | 0.522 | – | – | – | – | 9.3 | –
CCn1cnc2c1c(=O)[nH]c(=O)n2Cc1ccc(CNS(=O)(=O)c2ccc(Oc3cncc(C)n3)cc2)cc1 [Compound 42c] | – | – | – | – | – | – | – | 0.75 | – | – | – | – | 12.2 | –
CCCCc1c(C)nc2nc(SCc3nc4c(c(=O)[nH]c(=O)n4Cc4ccc(CNS(=O)(=O)c5ccc6c(c5)CCCC(=O)N6)cc4)n3CC)nn2c1C [Compound 32c, N-(4-((8-(((6-butyl-5,7-dimethyl-[1,2,4]triazolo[1,5-a]pyrimidin-2-yl)thio)methyl)-7-ethyl-2,6-dioxo-1,2,6,7-tetrahydro-3H-purin-3-yl)methyl)benzyl)-2-oxo-2,3,4,5-tetrahydro-1H-benzo[b]azepine-7-sulfonamide] | 18.9 | 4.16 | 9.15 | 4.67 | 0.7 | 2.1 | 1.08 | 1.1 | 9 | 4.43 | 1 | 3.36 | – | 32.5
Cc1noc(C)c1CCNC(=O)C1CCC(CNS(=O)(=O)c2ccc3c(c2)CCCC(=O)N3)CC1 (centres unmarked) [Compound 9a] | 9.17 | – | – | 10.3 | 3 | 3.4 | 15.7 | 16 | >3 | 5.05 | >10 | 33.9 | – | –
O=C1CCCc2cc(S(=O)(=O)NCC3CCC(C(=O)NCCc4cccs4)CC3)ccc2N1 (single isomer, unassigned) [Compound 5b, 4-((2-oxo-2,3,4,5-tetrahydro-1H-benzo[b]azepine-7-sulfonamido)methyl)-N-(2-(thiophen-2-yl)ethyl)cyclohexanecarboxamide] | 14.6 | – | – | 6.35 | >8 | 2.2 | 3.83 | 3.8 | >13 | 2.38 | >21 | – | – | 9.3
CCn1cnc2c1c(=O)[nH]c(=O)n2Cc1cc(OC)c(CNS(=O)(=O)c2ccc3c(c2)CCCC(=O)N3)cc1OC [Compound 32a] | – | – | – | – | – | – | – | 13 | – | – | – | – | 30.2 | 23.3
CCn1cnc2c1c(=O)[nH]c(=O)n2Cc1ccc(CNS(=O)(=O)c2ccc(N3CCOCC3)cc2)cc1 [Compound 45a] | 0.432 | 1.64 | 2.67 | 0.321 | 3 | 0.06 | 0.087 | 0.087 | 31 | 0.161 | 10 | 1.07 | – | –
CCn1cnc2c1c(=O)[nH]c(=O)n2Cc1ccc(CNS(=O)(=O)c2ccc(OC3CCOCC3)cc2)cc1 [Compound 43b] | 1.1 | 2.9 | 3.3 | 0.26 | 9 | 0.11 | 0.096 | 0.096 | 34 | 0.13 | 22 | 2.4 | – | –
